For the assay, the system named is nude mice, LX-1 lung xenograft intrarenal, tumor weight T/C. Nature of the assay: NCI In Vivo Anticancer Drug Screen. Data for tumor model Human Lung LX-1 Xenograft (intrarenal inoculation) in NU/NU Swiss (nude) mice. Conditions: endpoint: mean tumor weight change, higher = larger tumour. The procedure, abridged:
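Compound-treated mice carrying transplanted tumors were compared with vehicle-treated controls. Tumor size was the measured end point, and the value is the treated-group measurement divided by the control-group measurement (T/C).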
A general note: A xenograft is tissue or cells of one species grown in another, often human tumour cells in immunodeficient mice.

Where [1] appears, read: dose: 25.0 mg/kg/injection, schedule: Q01DX010 (sc), vehicle: Klucel (hydroxypropylcellulose) (HPC).
Where [2] appears, read: dose: 300.0 mg/kg/injection, schedule: Q04DX003 (sc), vehicle: Klucel (hydroxypropylcellulose) (HPC).
[3] abbreviates: dose: 600.0 mg/kg/injection, schedule: Q04DX003 (sc), vehicle: Klucel (hydroxypropylcellulose) (HPC).
Where [4] appears, read: dose: 1200.0 mg/kg/injection, schedule: Q04DX003 (sc), vehicle: Klucel (hydroxypropylcellulose) (HPC).
Setting [5] is: dose: 2400.0 mg/kg/injection, schedule: Q04DX003 (sc), vehicle: Klucel (hydroxypropylcellulose) (HPC).
[6] abbreviates: dose: 50.0 mg/kg/injection, schedule: Q01DX010 (sc), vehicle: Klucel (hydroxypropylcellulose) (HPC).
Where [7] appears, read: dose: 100.0 mg/kg/injection, schedule: Q01DX010 (sc), vehicle: Klucel (hydroxypropylcellulose) (HPC).
The mark [8] stands for this setting: dose: 50.0 mg/kg/injection, schedule: Q01DX010 (sc), vehicle: saline with Tween-80.

Several values for one entry are separate records, joined by “and”; a condition that tells them apart may be missing. Equal entries are not always repeated. Inconclusive results are not listed.

Turning to `COc1cc2cc3c4cc(OC)c(OC)cc4cc[n+]3c(C)c2cc1OC` (tested in a mixture with another compound), the T/C is, setting by setting: (dose: 50.0 mg/kg/injection, schedule: Q01DX010 (sc), vehicle: saline) 118 % of control; (dose: 100.0 mg/kg/injection, schedule: Q01DX010 (sc), vehicle: saline) 46 % of control.
For `CC(=O)O[C@H]1C(=O)[C@@]2(C)[C@H]([C@H](OC(=O)c3ccccc3)[C@]3(O)C[C@H](OC(=O)[C@H](O)[C@@H](NC(=O)c4ccccc4)c4ccccc4)C(C)=C1C3(C)C)[C@]1(OC(C)=O)CO[C@@H]1C[C@@H]2O`, the T/C reads like this: under setting [1], 40 % of control; (dose: 400.0 mg/kg/injection, schedule: Q01DX010 (sc), vehicle: Klucel (hydroxypropylcellulose) (HPC)) 14 % of control.
On to `COc1cc2cc(c1Cl)N(C)C(=O)CC(OC(=O)C(C)C)C1(C)OC1C(C)C1CC(O)(NC(=O)O1)C(OC)/C=C/C=C(C)C2` (stereo not drawn), for which the T/C is 19 % of control and 39 % of control (dose: 100.0 micrograms/kg/injection, schedule: Q01DX010 (sc), vehicle: saline + alcohol); 44 % of control (dose: 200.0 micrograms/kg/injection, schedule: Q01DX010 (sc), vehicle: saline + alcohol).
As to `COc1cccc2c1C(=O)c1c(O)c3c(c(O)c1C2=O)C[C@@](O)(/C(C)=N/NC(=O)c1ccccc1)C[C@@H]3OC1CC(N)C(O)C(C)O1` (stereo partly drawn), the T/C (dose: 2.5 mg/kg/injection, schedule: Q04DX003 (sc), vehicle: water) was 113 % of control; the T/C (dose: 10.0 mg/kg/injection, schedule: Q04DX003 (sc), vehicle: water) is 68 % of control and 71 % of control and 93 % of control; the T/C (dose: 18.75 mg/kg/injection, schedule: Q04DX003 (sc), vehicle: water) was 57 % of control; the T/C (dose: 20.0 mg/kg/injection, schedule: Q04DX003 (sc), vehicle: water) is 69 % of control and 79 % of control and 87 % of control; the T/C (dose: 37.5 mg/kg/injection, schedule: Q04DX003 (sc), vehicle: water) is 36 % of control; the T/C (dose: 40.0 mg/kg/injection, schedule: Q04DX003 (sc), vehicle: water) was 71 % of control. Also, the T/C was 18 % of control (dose: 75.0 mg/kg/injection, schedule: Q04DX003 (sc), vehicle: water) and 79 % of control (dose: 80.0 mg/kg/injection, schedule: Q04DX003 (sc), vehicle: water).
With `O.O.[NH-]C1CCCCC1[NH-].[Pt+2]` (stereo not drawn), the T/C was 68 % of control (dose: 5.0 mg/kg/injection, schedule: Q01DX010 (sc), vehicle: dextrose); 74 % of control (dose: 10.0 mg/kg/injection, schedule: Q01DX010 (sc), vehicle: dextrose); 57 % of control (dose: 20.0 mg/kg/injection, schedule: Q01DX010 (sc), vehicle: dextrose).
With `CCCCCC(O)C1C(=O)OC(C)C(O)/C=C/C=C/C=C/C=C\C=C(\C)C(O)CC(O)CC(O)CC(O)CC(O)CC(O)CC1O` (stereo not drawn), the T/C was 107 % of control (dose: 150.0 mg/kg/injection, schedule: Q04DX003 (sc), vehicle: distilled water + alcohol); 117 % of control (dose: 300.0 mg/kg/injection, schedule: Q04DX003 (sc), vehicle: distilled water + alcohol); 98 % of control (dose: 600.0 mg/kg/injection, schedule: Q04DX003 (sc), vehicle: distilled water + alcohol); 105 % of control (dose: 1200.0 mg/kg/injection, schedule: Q04DX003 (sc), vehicle: distilled water + alcohol).
`Cc1ccc(S(=O)(=O)OCOS(=O)(=O)c2ccc(C)cc2)cc1`: the T/C runs as follows: under setting [2], 79 % of control; under setting [3], 95 % of control; under setting [4], 74 % of control; under setting [5], 100 % of control.
In the case of `C#C[C@]1(O)CC[C@H]2[C@@H]3CCc4cc(O)ccc4[C@H]3CC[C@@]21C`, the T/C by setting is: under setting [2], 70 % of control; under setting [3], 102 % of control; under setting [4], 50 % of control; under setting [5], 55 % of control.
`C[C@H](N)C(=O)N[C@@H]1[C@H]2C(=C(O)C[C@@H](O)[C@@H]2O)C(=O)O[C@@H]1C`: the T/C reads like this: (dose: 300.0 mg/kg/injection, schedule: Q04DX003 (sc), vehicle: saline) 113 % of control; (dose: 600.0 mg/kg/injection, schedule: Q04DX003 (sc), vehicle: saline) 160 % of control; (dose: 900.0 mg/kg/injection, schedule: Q04DX003 (sc), vehicle: saline) 54 % of control; (dose: 1200.0 mg/kg/injection, schedule: Q04DX003 (sc), vehicle: saline) 92 % of control and 115 % of control; (dose: 1800.0 mg/kg/injection, schedule: Q04DX003 (sc), vehicle: saline) 78 % of control.
`CC(=O)OCC1OC(OC2=C(CC=C(C)C)C(=O)c3ccccc3C2=O)C(OC(C)=O)C(OC(C)=O)C1OC(C)=O` (stereo not drawn): the T/C is 61 % of control (dose: 12.5 mg/kg/injection, schedule: Q01DX010 (sc), vehicle: Klucel (hydroxypropylcellulose) (HPC)); 119 % of control under setting [1]; 97 % of control under setting [6]; 83 % of control under setting [7].
In the case of `COc1cc([C@@H]2c3cc4c(c(O)c3C[C@H]3COC(=O)[C@@H]32)OCO4)cc(OC)c1OC`, the T/C is, setting by setting: (dose: 0.25 mg/kg/injection, schedule: Q01DX010 (sc), vehicle: saline) 91 % of control; (dose: 0.5 mg/kg/injection, schedule: Q01DX010 (sc), vehicle: saline) 50 % of control; (dose: 1.0 mg/kg/injection, schedule: Q01DX010 (sc), vehicle: saline) 58 % of control; (dose: 2.0 mg/kg/injection, schedule: Q01DX010 (sc), vehicle: saline) 71 % of control and 73 % of control; (dose: 4.0 mg/kg/injection, schedule: Q01DX010 (sc), vehicle: saline) 117 % of control; (dose: 8.0 mg/kg/injection, schedule: Q01DX010 (sc), vehicle: saline) 168 % of control.
As for `COC1/C=C/O[C@@]2(C)Oc3c(C)c(O)c4c(O)c(cc(O)c4c3C2=O)NC(=O)/C(C)=C\C=C\[C@H](C)C(O)[C@@H](C)[C@@H](O)[C@@H](C)[C@H](OC(C)=O)[C@@H]1C` (stereo partly drawn), the T/C reads like this: (dose: 300.0 mg/kg/injection, schedule: Q04DX003 (sc), vehicle: suspension in saline) 60 % of control; (dose: 600.0 mg/kg/injection, schedule: Q04DX003 (sc), vehicle: suspension in saline) 84 % of control; (dose: 1200.0 mg/kg/injection, schedule: Q04DX003 (sc), vehicle: suspension in saline) 53 % of control; (dose: 2400.0 mg/kg/injection, schedule: Q04DX003 (sc), vehicle: suspension in saline) 64 % of control.
Consider `CN(C)N=Nc1cccc(C(N)=O)c1`, for which the T/C by setting is: (dose: 25.0 mg/kg/injection, schedule: Q04DX003 (sc), vehicle: Klucel (hydroxypropylcellulose) (HPC)) 72 % of control; (dose: 50.0 mg/kg/injection, schedule: Q04DX003 (sc), vehicle: Klucel (hydroxypropylcellulose) (HPC)) 47 % of control; (dose: 100.0 mg/kg/injection, schedule: Q04DX003 (sc), vehicle: Klucel (hydroxypropylcellulose) (HPC)) 7 % of control and 15 % of control; (dose: 200.0 mg/kg/injection, schedule: Q04DX003 (sc), vehicle: Klucel (hydroxypropylcellulose) (HPC)) 4 % of control and 29 % of control; (dose: 400.0 mg/kg/injection, schedule: Q04DX003 (sc), vehicle: Klucel (hydroxypropylcellulose) (HPC)) -61 % of control.
`O=CC=O`: the T/C reads like this: under setting [8], 82 % of control; (dose: 100.0 mg/kg/injection, schedule: Q01DX010 (sc), vehicle: saline with Tween-80) 61 % of control.
Regarding `O=C1C=C2C(=CCOC2O)O1` (stereo not drawn), the T/C was 158 % of control (dose: 1.0 mg/kg/injection, schedule: Q04DX003 (sc), vehicle: Klucel (hydroxypropylcellulose) (HPC)); 92 % of control (dose: 2.0 mg/kg/injection, schedule: Q04DX003 (sc), vehicle: Klucel (hydroxypropylcellulose) (HPC)); 151 % of control (dose: 8.0 mg/kg/injection, schedule: Q04DX003 (sc), vehicle: Klucel (hydroxypropylcellulose) (HPC)).
On to `O=c1[nH]c(=O)n(C2CC(O)C(CO)O2)cc1I` (stereo not drawn), for which, under setting [8], the T/C was 71 % of control.
Regarding `CCOC(=O)CNC(=O)Sc1ccc(C(C)(C)C)cc1`, the T/C (dose: 150.0 mg/kg/injection, schedule: Q04DX003 (sc), vehicle: Klucel (hydroxypropylcellulose) (HPC)) is 89 % of control; the T/C under setting [2] was 99 % of control; the T/C under setting [3] was 76 % of control; the T/C under setting [4] is 95 % of control.
With `CN(C)/N=N/c1nc[nH]c1C(N)=O`, the T/C under setting [6] is 4 % of control; the T/C under setting [7] is -84 % of control; the T/C (dose: 200.0 mg/kg/injection, schedule: Q01DX010 (sc), vehicle: Klucel (hydroxypropylcellulose) (HPC)) is -100 % of control.
Regarding `COc1ccc2c(NCCCCCCCCNc3c4ccccc4nc4cc(OC)ccc34)c3ccccc3nc2c1`, the T/C was 96 % of control (dose: 2.0 mg/kg/injection, schedule: Q04DX003 (sc), vehicle: suspension in saline) and 64 % of control (dose: 16.0 mg/kg/injection, schedule: Q04DX003 (sc), vehicle: suspension in saline).
